Measurements: the OPERA property sets (Mansouri et al. 2018)
In brackets after ≈: the same amount, converted by molar mass.

details: not given

In order of falling logP:
1. CCOc1ccc(C(C)(C)COCc2cccc(Oc3ccccc3)c2)cc1  7.05
2. O=C(NC(=O)c1c(F)cccc1F)Nc1ccc(CO/N=C(/c2ccc(Cl)cc2)C2CC2)cc1  6.97
3. CC(C)(C)c1ccc(CSc2cnn(C(C)(C)C)c(=O)c2Cl)cc1  6.37
4. CC1(C)C(C=C(Cl)Cl)C1C(=O)OC(C#N)c1ccc(F)c(Oc2ccccc2)c1 (centres undefined)  5.95
5. O=C(NC(=O)c1c(F)cccc1F)Nc1cc(Cl)c(Oc2ncc(C(F)(F)F)cc2Cl)c(Cl)c1  5.8
6. CCCSP(=S)(OCC)Oc1ccc(Cl)cc1Cl (centres undefined)  5.67
7. C=C(C)CN(CC)c1c([N+](=O)[O-])cc(C(F)(F)F)cc1[N+](=O)[O-]  5.11
8. O=C(NC(=O)c1c(F)cccc1F)Nc1ccc(Cl)c(Oc2ncc(C(F)(F)F)cc2Cl)c1  5.1
9. CCCCCOC(=O)COc1cc(N2C(=O)C3=C(CCCC3)C2=O)c(F)cc1Cl  4.99
10. CCOCn1c(-c2ccc(Cl)cc2)c(C#N)c(Br)c1C(F)(F)F  4.83
11. CCOP(=S)(OCC)OC(Cl)C(Cl)(Cl)Cl (centres undefined)  4.59
12. CC(Oc1ccc(Oc2ccc(Cl)cc2Cl)cc1)C(=O)O (centres undefined)  4.58
13. COP(=S)(OC)Oc1c(Cl)cc(C)cc1Cl  4.56
14. C#CCC1=C(C)C(OC(=O)C2C(C=C(C)C)C2(C)C)CC1=O (centres undefined)  4.49
15. CCC1OCC(COc2ccc(Oc3ccccc3)cc2)O1 (centres undefined)  4.35
16. CCOCCOC(=O)C(C)Oc1ccc(Oc2ncc(C(F)(F)F)cc2Cl)cc1 (centres undefined)  4.33
17. CC(Oc1ccc(Oc2cnc3cc(Cl)ccc3n2)cc1)C(=O)OCC1CCCO1 (centres undefined)  4.32
18. CCOC(=O)CCN(SN(C)C(=O)Oc1cccc2c1OC(C)(C)C2)C(C)C  4.3
19. CCOP(=S)(OCC)OP(=S)(OCC)OCC  3.99
20. N#Cc1c[nH]cc1-c1cccc(Cl)c1Cl  3.86
21. CCCCN(CC)C(=O)SCCC  3.83
22. COP(=S)(OC)SCC(=O)N(c1ccc(Cl)cc1)C(C)C  3.81
23. CCOC(=O)c1cn2nc(OP(=S)(OCC)OCC)cc2nc1C  3.8
24. CCCCC(CC)CN1C(=O)C2C3C=CC(C3)C2C1=O (centres undefined)  3.7
25. COC(=O)Nc1cccc(OC(=O)Nc2cccc(C)c2)c1  3.59
26. CCCSP(=O)(OCC)SCCC  3.59
27. CCCOC(=O)c1ccc(C(=O)OCCC)nc1  3.57
28. Fc1ccc(C2(Cn3cncn3)OC2c2ccccc2Cl)cc1 (centres undefined)  3.44
29. CCN(CC)C(=O)SCc1ccccc1Cl  3.43
30. CCOC(=O)CCN(Cc1ccccc1)SN(C)C(=O)O/N=C(/C)SC  3.43
31. CCOC(=O)Nc1cccc(OC(=O)Nc2ccccc2)c1  3.39
32. O=C1C(Cl)C(CCl)CN1c1cccc(C(F)(F)F)c1 (centres undefined)  3.36
33. CC(Oc1ccc(Oc2ncc(Cl)cc2Cl)cc1)C(=O)N1CCCO1 (centres undefined)  3.36
34. CC(C)C(O)(c1ccc(OC(F)(F)F)cc1)c1cncnc1 (centres undefined)  3.34
35. CN(C)C(=O)SCCCCOc1ccccc1  3.28
36. OC(c1ccc(F)cc1)(c1cncnc1)c1ccccc1Cl (centres undefined)  3.18
37. Clc1ccccc1-c1nnc(-c2ccccc2Cl)nn1  3.1
38. CCOCN(C(=O)CCl)c1c(C)cccc1CC  3.03
39. CS(=O)(=O)NC(=O)c1cc(Oc2ccc(C(F)(F)F)cc2Cl)ccc1[N+](=O)[O-]  2.9
40. N#CC(=NOCC1OCCO1)c1ccccc1  2.76
41. CC1COc2ccccc2N1C(=O)C(Cl)Cl (centres undefined)  2.7
42. COc1ccc(C(=CC(=O)N2CCOCC2)c2ccc(Cl)cc2)cc1OC  2.68
43. c1coc(-c2nc3ccccc3[nH]2)c1  2.67
44. CNC(=O)N(C)c1nc2ccccc2s1  2.64
45. CN(C)C(O)=Nc1ccc(-n2nc(C(C)(C)C)oc2=O)c(Cl)c1  2.51
46. CCOC(=O)Cn1c(=O)sc2cccc(Cl)c21  2.5
47. CC1(C)CON(Cc2ccccc2Cl)C1=O  2.5
48. Cc1cnc(C2=NC(=O)C(C)(C(C)C)N2)c(C(=O)O)c1 (centres undefined)  2.47
49. CCCCCCCCn1sccc1=O  2.45
50. CCOS(=O)(=O)c1ccc2c(c1)C(C)(C)CO2  2.41
51. CNc1nc(NC(C)C)nc(SC)n1  2.38
52. CC1(C)CNC(=NN=C(/C=C/c2ccc(C(F)(F)F)cc2)/C=C/c2ccc(C(F)(F)F)cc2)NC1  2.31
53. O=C1C(Cl)=C(Cl)C(=O)N1c1ccc(F)cc1  2.3
54. COCC(C)N(C(=O)CCl)c1c(C)csc1C (centres undefined)  2.15
55. COCCOc1ccccc1S(=O)(=O)N=C(O)N=c1nc(OC)[nH]c(OC)n1  2.04
56. CN(C)C(=O)Nc1cc(C(C)(C)C)on1  1.98
57. COc1ccc(C(O)(c2cncnc2)C2CC2)cc1 (centres undefined)  1.91
58. C=CCN(CC=C)C(=O)C(Cl)Cl  1.84
59. Cc1nc(N(C)C)nc(OC(=O)N(C)C)c1C  1.7
60. O=C1CCc2cccc3c2N1CC3  1.57
61. C=CCNC(=O)CN(CC=C)C(=O)C(Cl)Cl  1
62. CC1=C(C)S(=O)(=O)CCS1(=O)=O  -0.17

In order of falling solubility:
1. N=C(N)NCCCCCCCCNCCCCCCCCNC(=N)N  2150 mM (≈ 764000 µg/mL)
2. S=C([S-])NCCNC(=S)[S-].[Na+].[Na+]  780 mM
3. O=C(O)COc1ccc(Cl)cc1CO  9.23 mM (≈ 2000 µg/mL)
4. O=C1c2ccccc2C(=O)C1C(=O)C(c1ccccc1)c1ccccc1  0.000881 mM (≈ 0.3 µg/mL)

same assay, conditions: 20 °C

In order of falling solubility:
1. CCC(C)c1ccccc1OC(=O)NC (centres undefined)  3.18 mM (≈ 660 µg/mL)
2. CCCCCCC(C)OC(=O)COc1nc(F)c(Cl)c(N)c1Cl (centres undefined)  0.000245 mM (≈ 0.09 µg/mL)
3. ClC1=C(Cl)C(Cl)(C2(Cl)C(Cl)=C(Cl)C(Cl)=C2Cl)C(Cl)=C1Cl  5.27e-05 mM (≈ 0.025 µg/mL)
